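Where inhibition never reached the appropriate level, the endpoint shown equals the highest concentration tested. Otherwise, values were interpolated linearly from a five-concentration, 48-hour dose response in 96-well plates. GI50 is the concentration that inhibits growth by half. TGI: concentration producing complete growth inhibition.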
Tests used:
Assay in all cases: NCI tumour cell line growth inhibition, 48 h
MOLT-4 leukemia = test system: MOLT-4 leukemia
MCF7 breast = test system: MCF7 breast
COLO 205 colon = test system: COLO 205 colon
HL-60(TB) leukemia = test system: HL-60(TB) leukemia
OVCAR-4 ovarian = test system: OVCAR-4 ovarian
TK-10 renal = test system: TK-10 renal
SK-MEL-2 melanoma = test system: SK-MEL-2 melanoma
SK-MEL-28 melanoma = test system: SK-MEL-28 melanoma
MALME-3M melanoma = test system: MALME-3M melanoma
UACC-257 melanoma = test system: UACC-257 melanoma
CCRF-CEM leukemia = test system: CCRF-CEM leukemia
786-0 renal = test system: 786-0 renal
CAKI-1 renal = test system: CAKI-1 renal
ACHN renal = test system: ACHN renal
HCT-15 colon = test system: HCT-15 colon
HOP-62 NSCLC = test system: HOP-62 NSCLC
OVCAR-5 ovarian = test system: OVCAR-5 ovarian
NCI/ADR-RES ovarian = test system: NCI/ADR-RES ovarian
RXF 393 renal = test system: RXF 393 renal
HOP-92 NSCLC = test system: HOP-92 NSCLC
RPMI-8226 leukemia = test system: RPMI-8226 leukemia
U251 CNS = test system: U251 CNS
HCT-116 colon = test system: HCT-116 colon
IGROV1 ovarian = test system: IGROV1 ovarian
UACC-62 melanoma = test system: UACC-62 melanoma
HT29 colon = test system: HT29 colon
K-562 leukemia = test system: K-562 leukemia
PC-3 prostate = test system: PC-3 prostate
SW-620 colon = test system: SW-620 colon
NCI-H460 lung = test system: NCI-H460 lung
SNB-19 CNS = test system: SNB-19 CNS
SF-268 CNS = test system: SF-268 CNS
MDA-MB-435 = test system: MDA-MB-435
MDA-MB-231 breast = test system: MDA-MB-231 breast
SNB-75 CNS = test system: SNB-75 CNS
EKVX NSCLC = test system: EKVX NSCLC
SR leukemia = test system: SR leukemia
DU-145 prostate = test system: DU-145 prostate
HS 578T breast = test system: HS 578T breast
M14 melanoma = test system: M14 melanoma
NCI-H23 lung = test system: NCI-H23 lung
LOX IMVI melanoma = test system: LOX IMVI melanoma
SN12C renal = test system: SN12C renal
OVCAR-3 ovarian = test system: OVCAR-3 ovarian
NCI-H226 lung = test system: NCI-H226 lung
SK-MEL-5 melanoma = test system: SK-MEL-5 melanoma
BT-549 breast = test system: BT-549 breast
A498 renal = test system: A498 renal
NCI-H522 lung = test system: NCI-H522 lung
HCC-2998 colon = test system: HCC-2998 colon
SF-295 CNS = test system: SF-295 CNS
KM12 colon = test system: KM12 colon
T-47D breast = test system: T-47D breast
SF-539 CNS = test system: SF-539 CNS
SK-OV-3 ovarian = test system: SK-OV-3 ovarian
UO-31 renal = test system: UO-31 renal
OVCAR-8 ovarian = test system: OVCAR-8 ovarian
A549 NSCLC = test system: A549 NSCLC

O=Cc1cn(Cc2ccc(Cl)cc2)c2ccccc12
GI50 (MOLT-4 leukemia): 17.9 µM
TGI (MOLT-4 leukemia): > 82.7 µM
GI50 (MCF7 breast): 4.12 µM
TGI (MCF7 breast): > 67.2 µM
GI50 (COLO 205 colon): 2.17 µM
TGI (COLO 205 colon): 20.7 µM
GI50 (HL-60(TB) leukemia): 22.5 µM
TGI (HL-60(TB) leukemia): 72.8 µM
GI50 (OVCAR-4 ovarian): 4.39 µM
TGI (OVCAR-4 ovarian): > 100 µM
GI50 (TK-10 renal): 0.162 µM
TGI (TK-10 renal): 1.52 µM
GI50 (SK-MEL-2 melanoma): 8.49 µM
TGI (SK-MEL-2 melanoma): 66.1 µM
GI50 (SK-MEL-28 melanoma): 33.6 µM
TGI (SK-MEL-28 melanoma): > 100 µM
GI50 (MALME-3M melanoma): 14.3 µM
TGI (MALME-3M melanoma): 43.3 µM
GI50 (UACC-257 melanoma): 2.05 µM
TGI (UACC-257 melanoma): 7.44 µM
GI50 (CCRF-CEM leukemia): 19.7 µM
TGI (CCRF-CEM leukemia): > 100 µM
GI50 (786-0 renal): 13.6 µM
TGI (786-0 renal): 64.5 µM
GI50 (CAKI-1 renal): 0.101 µM
TGI (CAKI-1 renal): 3.42 µM
GI50 (ACHN renal): 27.4 µM
TGI (ACHN renal): > 100 µM
GI50 (HCT-15 colon): 15.5 µM
TGI (HCT-15 colon): > 100 µM
GI50 (HOP-62 NSCLC): 2.63 µM
TGI (HOP-62 NSCLC): > 100 µM
GI50 (OVCAR-5 ovarian): 0.082 µM
TGI (OVCAR-5 ovarian): 0.659 µM
GI50 (NCI/ADR-RES ovarian): 13.9 µM
TGI (NCI/ADR-RES ovarian): > 100 µM
GI50 (RXF 393 renal): 4.59 µM
TGI (RXF 393 renal): 51.8 µM
GI50 (HOP-92 NSCLC): 4.43 µM
TGI (HOP-92 NSCLC): 49 µM
GI50 (RPMI-8226 leukemia): 7.14 µM
TGI (RPMI-8226 leukemia): > 100 µM
GI50 (U251 CNS): 13.3 µM
TGI (U251 CNS): > 100 µM
GI50 (HCT-116 colon): 4.83 µM
TGI (HCT-116 colon): 30 µM
GI50 (IGROV1 ovarian): 1.22 µM
TGI (IGROV1 ovarian): 39.4 µM
GI50 (UACC-62 melanoma): 1.32 µM
TGI (UACC-62 melanoma): 9.09 µM
GI50 (HT29 colon): 24.4 µM
TGI (HT29 colon): > 100 µM
GI50 (K-562 leukemia): 4.21 µM
TGI (K-562 leukemia): > 100 µM
GI50 (PC-3 prostate): 12.8 µM
TGI (PC-3 prostate): 73.2 µM
GI50 (SW-620 colon): 13.2 µM
TGI (SW-620 colon): > 100 µM
GI50 (NCI-H460 lung): 0.115 µM
TGI (NCI-H460 lung): 11.2 µM
GI50 (SNB-19 CNS): 19.4 µM
TGI (SNB-19 CNS): > 100 µM
GI50 (SF-268 CNS): 21.4 µM
TGI (SF-268 CNS): > 100 µM
GI50 (MDA-MB-435): 23 µM
TGI (MDA-MB-435): > 100 µM
GI50 (MDA-MB-231 breast): 9.7 µM
TGI (MDA-MB-231 breast): > 56.3 µM
GI50 (SNB-75 CNS): 8.26 µM
TGI (SNB-75 CNS): > 100 µM
GI50 (EKVX NSCLC): 21 µM
TGI (EKVX NSCLC): > 100 µM
GI50 (SR leukemia): 16.5 µM
TGI (SR leukemia): > 79.4 µM
GI50 (DU-145 prostate): 22.3 µM
TGI (DU-145 prostate): > 100 µM
GI50 (HS 578T breast): 19.2 µM
TGI (HS 578T breast): > 100 µM
GI50 (M14 melanoma): 15.2 µM
TGI (M14 melanoma): 72.5 µM
GI50 (NCI-H23 lung): 8.37 µM
TGI (NCI-H23 lung): > 100 µM
GI50 (LOX IMVI melanoma): 12.1 µM
TGI (LOX IMVI melanoma): > 95 µM
GI50 (SN12C renal): 14.9 µM
TGI (SN12C renal): > 100 µM
GI50 (OVCAR-3 ovarian): 6.64 µM
TGI (OVCAR-3 ovarian): 61.7 µM
GI50 (NCI-H226 lung): 0.041 µM
TGI (NCI-H226 lung): 0.251 µM
GI50 (SK-MEL-5 melanoma): 8.18 µM
TGI (SK-MEL-5 melanoma): 22.3 µM
GI50 (BT-549 breast): 11.4 µM
TGI (BT-549 breast): 49.2 µM
GI50 (A498 renal): 0.0342 µM
TGI (A498 renal): 0.172 µM
GI50 (NCI-H522 lung): 73.2 µM
TGI (NCI-H522 lung): > 100 µM
GI50 (HCC-2998 colon): 14.3 µM
TGI (HCC-2998 colon): > 100 µM
GI50 (SF-295 CNS): 0.992 µM
TGI (SF-295 CNS): 34.9 µM
GI50 (KM12 colon): 26.4 µM
TGI (KM12 colon): > 100 µM
GI50 (T-47D breast): 1.84 µM
TGI (T-47D breast): 69.7 µM
GI50 (SF-539 CNS): 16.6 µM
TGI (SF-539 CNS): 50.3 µM
GI50 (SK-OV-3 ovarian): 1.84 µM
TGI (SK-OV-3 ovarian): 44.8 µM
GI50 (UO-31 renal): 3.35 µM
TGI (UO-31 renal): 45.4 µM
GI50 (OVCAR-8 ovarian): 23.5 µM
TGI (OVCAR-8 ovarian): > 100 µM
GI50 (A549 NSCLC): 13.4 µM
TGI (A549 NSCLC): > 100 µM
